Results as given in patent US20230321123A1, “INHIBITORS OF PSEUDOMONAS AERUGINOSA VIRULENCE FACTOR LasB” (Helmholtz-Zentrum Für Infektionsforschung GmbH, priority 2020, published 2023).

Target: LasB (Pseudomonas aeruginosa, UniProt Q02RJ6)
Experiment: biochemical
Design: species or system P. aeruginosa
Conditions: IC50 against LasB

Chain of LasB (Q02RJ6 198-498): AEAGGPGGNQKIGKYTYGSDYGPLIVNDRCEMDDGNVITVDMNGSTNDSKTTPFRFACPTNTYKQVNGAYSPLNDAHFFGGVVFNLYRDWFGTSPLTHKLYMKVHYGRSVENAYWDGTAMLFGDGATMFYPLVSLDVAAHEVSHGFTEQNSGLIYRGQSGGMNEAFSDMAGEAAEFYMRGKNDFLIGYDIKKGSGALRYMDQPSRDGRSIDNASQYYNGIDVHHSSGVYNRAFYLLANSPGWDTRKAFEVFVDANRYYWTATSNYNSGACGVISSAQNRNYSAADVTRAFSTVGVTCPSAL

Row | Structure (SMILES) | IC50 [µM]
1 | CC(C)CC(C(=O)N[C@@H](CC(C)C)C(=O)Nc1ccc(Cl)c(Cl)c1)P(=O)(O)O (stereo partly drawn) [Example 155] | 0.06 ± 0.002
2 | CC(=O)c1ccc(NC(=O)C(S)C(C)C)cc1 (stereo not drawn) [Example 23] | 22
3 | CC(C)CC(S)C(=O)Nc1ccc(Cl)c(Cl)c1 (stereo not drawn) [Example 31] | 2.6 ± 0.2
4 | CC(C)CC(C(=O)Nc1cnc(Cl)nc1)P(=O)(O)O (stereo not drawn) [Example 86] | 0.498 ± 0.025
5 | CC(C)C(S)C(=O)Nc1ccc(Cl)c(Cl)c1 (stereo not drawn) [Example 21] | 2.5 ± 0.3
6 | CCC(C)C(S)C(=O)Nc1ccc(Cl)c(Cl)c1 (stereo not drawn) [Example 43] | 7.5 ± 0.2
7 | CC(C)CC(S)C(=O)Nc1ccc(Cl)cc1 (stereo not drawn) [Example 38] | 0.84 ± 0.24
8 | CC(C)CC(C(=O)Nc1ccc(NC(=O)C(Cc2ccccc2)c2ccccc2)cc1)P(=O)(O)O (stereo not drawn) [Example 120] | 0.03 ± 0.001
9 | CC(C)CC(C(=O)N[C@@H]1CCCN(Cc2ccc(Cl)cc2)C1)P(=O)(O)O (stereo partly drawn) [Example 148] | 8.36 ± 0.26
10 | CC(C)CC(C(=O)N1CCN(Cc2ccc(-c3ccc(Cl)cc3)cc2)CC1)P(=O)(O)O (stereo not drawn) [Example 150] | 8.66 ± 1.11
11 | CC(C)CC(C(=O)Nc1ccc(Cl)nc1)P(=O)(O)O (stereo not drawn) [Example 83] | 1.13 ± 0.02
12 | O=C(O)CC(S)C(=O)Nc1ccc(Cl)c(Cl)c1 (stereo not drawn) [Example 54] | 3.9 ± 0.4
13 | COc1ccc(NC(=O)C(S)C(C)C)cc1 (stereo not drawn) [Example 22] | 16 ± 1
14 | CC(C)CC(C(=O)NC12CC(C(=O)Nc3ccc(Cl)c(Cl)c3)(C1)C2)P(=O)(O)O (stereo not drawn) [Example 151, (1-((3-((3,4-Dichlorophenyl)carbamoyl)bicyclo[1.1.1]pentan-1-yl)amino)-4-methyl-1-oxopentan-2-yl)phosphonic acid] | 0.347 ± 0.012
15 | CC(C)CC(C(=O)N[C@@H](CC1CC1)C(=O)Nc1ccc(Cl)c(Cl)c1)P(=O)(O)O (stereo partly drawn) [Example 164] | 0.027 ± 0.001
